Assay results: patent US20230017045A1, “PYRIDINE AND PYRIMIDINE CARBOXYLATE HERBICIDES AND METHODS OF USE THEREOF” (Dow AgroSciences LLC, priority 2017, published 2023)

The compounds below were run on test plant species (assay: Post-emergent herbicidal activity test (greenhouse, foliar spray, visual growth reduction)). Conditions: post-emergence, 336 h, ECHCG: barnyardgrass (Echinochloa crus-galli), 140 g ai/ha, 14 days after application, read-out: Visual Growth Reduction (%) 14 Days After Application, ECHCG.
Type: in vivo
Summary of the method: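 Plants grown in greenhouse (15 h photoperiod, 23-29° C day/22-28° C night) to first or second true leaf stage were sprayed overhead with compound in acetone/water/isopropanol/DMSO/crop oil/X-77 carrier at 187 L/ha. Injury was scored visually after 14 d on a 0-100% scale versus solvent-blank and untreated controls.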

Row | SMILES | pest or weed control at 140 g/ha [%]
1 | COC(=O)c1nc(-c2ccc(O)cc2F)c(F)cc1Cl [F345, Methyl 3-chloro-5-fluoro-6-(2-fluoro-4-hydroxyphenyl) picolinate] | 0 to 29
2 | COC(=O)c1nc(-c2cc(Cl)c(C(F)(F)F)cc2C)ccc1Cl [F371, Methyl 3-chloro-6-(5-chloro-2-methyl-4-(trifluoromethyl)phenyl)picolinate] | 0 to 29

Same assay, conditions: post-emergence, 336 h, IPOHE: ivy-leaf morning glory (Ipomoea hederacea), 140 g ai/ha, 14 days after application, read-out: Visual Growth Reduction (%) 14 Days After Application, IPOHE

Row | SMILES | pest or weed control at 140 g/ha [%]
3 | COC(=O)c1nc(-c2ccc(O)cc2F)c(F)cc1Cl [F345, Methyl 3-chloro-5-fluoro-6-(2-fluoro-4-hydroxyphenyl) picolinate] | 0 to 29
4 | COC(=O)c1nc(-c2cc(Cl)c(C(F)(F)F)cc2C)ccc1Cl [F371, Methyl 3-chloro-6-(5-chloro-2-methyl-4-(trifluoromethyl)phenyl)picolinate] | 95 to 100

Same assay, conditions: post-emergence, 336 h, KCHSC: kochia (Bassia scoparia), 140 g ai/ha, 14 days after application, read-out: Visual Growth Reduction (%) 14 Days After Application, KCHSC

Row | SMILES | pest or weed control at 140 g/ha [%]
5 | COC(=O)c1nc(-c2ccc(O)cc2F)c(F)cc1Cl [F345, Methyl 3-chloro-5-fluoro-6-(2-fluoro-4-hydroxyphenyl) picolinate] | 0 to 29
6 | COC(=O)c1nc(-c2cc(Cl)c(C(F)(F)F)cc2C)ccc1Cl [F371, Methyl 3-chloro-6-(5-chloro-2-methyl-4-(trifluoromethyl)phenyl)picolinate] | 0 to 29

Same assay, conditions: post-emergence, 336 h, ORYSA: rice (Oryza sativa), 140 g ai/ha, 14 days after application, read-out: Visual Growth Reduction (%) 14 Days After Application, ORYSA

Row | SMILES | pest or weed control at 140 g/ha [%]
7 | COC(=O)c1nc(-c2ccc(O)cc2F)c(F)cc1Cl [F345, Methyl 3-chloro-5-fluoro-6-(2-fluoro-4-hydroxyphenyl) picolinate] | 0 to 29
8 | COC(=O)c1nc(-c2cc(Cl)c(C(F)(F)F)cc2C)ccc1Cl [F371, Methyl 3-chloro-6-(5-chloro-2-methyl-4-(trifluoromethyl)phenyl)picolinate] | 0 to 29

Same assay, conditions: post-emergence, 336 h, SETFA: giant foxtail (Setaria faberi), 140 g ai/ha, 14 days after application, read-out: Visual Growth Reduction (%) 14 Days After Application, SETFA

Row | SMILES | pest or weed control at 140 g/ha [%]
9 | COC(=O)c1nc(-c2ccc(O)cc2F)c(F)cc1Cl [F345, Methyl 3-chloro-5-fluoro-6-(2-fluoro-4-hydroxyphenyl) picolinate] | 0 to 29
10 | COC(=O)c1nc(-c2cc(Cl)c(C(F)(F)F)cc2C)ccc1Cl [F371, Methyl 3-chloro-6-(5-chloro-2-methyl-4-(trifluoromethyl)phenyl)picolinate] | 0 to 29

Same assay, conditions: post-emergence, 336 h, SORVU: grain sorghum (Sorghum vulgare), 140 g ai/ha, 14 days after application, read-out: Visual Growth Reduction (%) 14 Days After Application, SORVU

Row | SMILES | pest or weed control at 140 g/ha [%]
11 | COC(=O)c1nc(-c2ccc(O)cc2F)c(F)cc1Cl [F345, Methyl 3-chloro-5-fluoro-6-(2-fluoro-4-hydroxyphenyl) picolinate] | 0 to 29
12 | COC(=O)c1nc(-c2cc(Cl)c(C(F)(F)F)cc2C)ccc1Cl [F371, Methyl 3-chloro-6-(5-chloro-2-methyl-4-(trifluoromethyl)phenyl)picolinate] | 75 to 84

Same assay, conditions: post-emergence, 336 h, STEME: common chickweed (Stellaria media), 140 g ai/ha, 14 days after application, read-out: Visual Growth Reduction (%) 14 Days After Application, STEME

Row | SMILES | pest or weed control at 140 g/ha [%]
13 | COC(=O)c1nc(-c2ccc(O)cc2F)c(F)cc1Cl [F345, Methyl 3-chloro-5-fluoro-6-(2-fluoro-4-hydroxyphenyl) picolinate] | 0 to 29
14 | COC(=O)c1nc(-c2cc(Cl)c(C(F)(F)F)cc2C)ccc1Cl [F371, Methyl 3-chloro-6-(5-chloro-2-methyl-4-(trifluoromethyl)phenyl)picolinate] | 0 to 29

Same assay, conditions: post-emergence, 336 h, TRZAS: wheat, spring (Triticum aestivum), 140 g ai/ha, 14 days after application, read-out: Visual Growth Reduction (%) 14 Days After Application, TRZAS

Row | SMILES | pest or weed control at 140 g/ha [%]
15 | COC(=O)c1nc(-c2ccc(O)cc2F)c(F)cc1Cl [F345, Methyl 3-chloro-5-fluoro-6-(2-fluoro-4-hydroxyphenyl) picolinate] | 0 to 29
16 | COC(=O)c1nc(-c2cc(Cl)c(C(F)(F)F)cc2C)ccc1Cl [F371, Methyl 3-chloro-6-(5-chloro-2-methyl-4-(trifluoromethyl)phenyl)picolinate] | 0 to 29

Same assay, conditions: post-emergence, 336 h, blackgrass (Alopecurus myosuroides), 14 Days After Application, 140 g ai/ha, read-out: Visual Growth Reduction (%) ALOMY

Row | SMILES | pest or weed control at 140 g/ha [%]
17 | COC(=O)c1nc(-c2ccc(O)cc2F)c(F)cc1Cl [F345, Methyl 3-chloro-5-fluoro-6-(2-fluoro-4-hydroxyphenyl) picolinate] | 0 to 29
18 | COC(=O)c1nc(-c2cc(Cl)c(C(F)(F)F)cc2C)ccc1Cl [F371, Methyl 3-chloro-6-(5-chloro-2-methyl-4-(trifluoromethyl)phenyl)picolinate] | 0 to 29

Same assay, conditions: post-emergence, 336 h, canada thistle (Cirsium arvense), 14 Days After Application, 140 g ai/ha, read-out: Visual Growth Reduction (%) CIRAR

Row | SMILES | pest or weed control at 140 g/ha [%]
19 | COC(=O)c1nc(-c2ccc(O)cc2F)c(F)cc1Cl [F345, Methyl 3-chloro-5-fluoro-6-(2-fluoro-4-hydroxyphenyl) picolinate] | 0 to 29
20 | COC(=O)c1nc(-c2cc(Cl)c(C(F)(F)F)cc2C)ccc1Cl [F371, Methyl 3-chloro-6-(5-chloro-2-methyl-4-(trifluoromethyl)phenyl)picolinate] | 0 to 29

Same assay, conditions: post-emergence, 336 h, crabgrass (Digitaria sanguinalis), 14 Days After Application, 140 g ai/ha, read-out: Visual Growth Reduction (%) DIGSA

Row | SMILES | pest or weed control at 140 g/ha [%]
21 | COC(=O)c1nc(-c2ccc(O)cc2F)c(F)cc1Cl [F345, Methyl 3-chloro-5-fluoro-6-(2-fluoro-4-hydroxyphenyl) picolinate] | 0 to 29
22 | COC(=O)c1nc(-c2cc(Cl)c(C(F)(F)F)cc2C)ccc1Cl [F371, Methyl 3-chloro-6-(5-chloro-2-methyl-4-(trifluoromethyl)phenyl)picolinate] | 45 to 59

Same assay, conditions: post-emergence, 336 h, lambsquarters (Chenopodium album), 14 Days After Application, 140 g ai/ha, read-out: Visual Growth Reduction (%) CHEAL

Row | SMILES | pest or weed control at 140 g/ha [%]
23 | COC(=O)c1nc(-c2ccc(O)cc2F)c(F)cc1Cl [F345, Methyl 3-chloro-5-fluoro-6-(2-fluoro-4-hydroxyphenyl) picolinate] | 0 to 29
24 | COC(=O)c1nc(-c2cc(Cl)c(C(F)(F)F)cc2C)ccc1Cl [F371, Methyl 3-chloro-6-(5-chloro-2-methyl-4-(trifluoromethyl)phenyl)picolinate] | 30 to 44

Same assay, conditions: post-emergence, 336 h, redroot pigweed (Amaranthus retroflexus), 14 Days After Application, 140 g ai/ha, read-out: Visual Growth Reduction (%) AMARE

Row | SMILES | pest or weed control at 140 g/ha [%]
25 | COC(=O)c1nc(-c2ccc(O)cc2F)c(F)cc1Cl [F345, Methyl 3-chloro-5-fluoro-6-(2-fluoro-4-hydroxyphenyl) picolinate] | 0 to 29
26 | COC(=O)c1nc(-c2cc(Cl)c(C(F)(F)F)cc2C)ccc1Cl [F371, Methyl 3-chloro-6-(5-chloro-2-methyl-4-(trifluoromethyl)phenyl)picolinate] | 30 to 44

Same assay, conditions: post-emergence, 336 h, wild oat (Avena fatua), 14 Days After Application, 140 g ai/ha, read-out: Visual Growth Reduction (%) AVEFA

Row | SMILES | pest or weed control at 140 g/ha [%]
27 | COC(=O)c1nc(-c2ccc(O)cc2F)c(F)cc1Cl [F345, Methyl 3-chloro-5-fluoro-6-(2-fluoro-4-hydroxyphenyl) picolinate] | 0 to 29
28 | COC(=O)c1nc(-c2cc(Cl)c(C(F)(F)F)cc2C)ccc1Cl [F371, Methyl 3-chloro-6-(5-chloro-2-methyl-4-(trifluoromethyl)phenyl)picolinate] | 0 to 29

Same assay, conditions: post-emergence, 336 h, yellow nutsedge (Cyperus esculentus), 14 Days After Application, 140 g ai/ha, read-out: Visual Growth Reduction (%) CYPES

Row | SMILES | pest or weed control at 140 g/ha [%]
29 | COC(=O)c1nc(-c2ccc(O)cc2F)c(F)cc1Cl [F345, Methyl 3-chloro-5-fluoro-6-(2-fluoro-4-hydroxyphenyl) picolinate] | 0 to 29
30 | COC(=O)c1nc(-c2cc(Cl)c(C(F)(F)F)cc2C)ccc1Cl [F371, Methyl 3-chloro-6-(5-chloro-2-methyl-4-(trifluoromethyl)phenyl)picolinate] | 0 to 29
